Results published in PubChem BioAssay (NCI).
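Interpolation was linear, between the two tested concentrations surrounding the appropriate level; five concentrations were tested over 48 hours in 96-well plates. At the TGI there is no net growth.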

Assays:
Experiment in all cases: NCI tumour cell line growth inhibition, 48 h
[1] = tested on: 786-0 renal
[2] = tested on: A498 renal
[3] = tested on: A549 NSCLC
[4] = tested on: ACHN renal
[5] = tested on: BT-549 breast
[6] = tested on: CAKI-1 renal
[7] = tested on: CCRF-CEM leukemia
[8] = tested on: COLO 205 colon
[9] = tested on: DU-145 prostate
[10] = tested on: EKVX NSCLC
[11] = tested on: HCC-2998 colon
[12] = tested on: HCT-116 colon
[13] = tested on: HCT-15 colon
[14] = tested on: HOP-62 NSCLC
[15] = tested on: HOP-92 NSCLC
[16] = tested on: KM12 colon
[17] = tested on: LOX IMVI melanoma
[18] = tested on: M14 melanoma
[19] = tested on: MCF7 breast
[20] = tested on: MDA-MB-231 breast
[21] = tested on: MDA-MB-435
[22] = tested on: NCI-H23 lung
[23] = tested on: NCI-H460 lung
[24] = tested on: NCI/ADR-RES ovarian
[25] = tested on: OVCAR-3 ovarian
[26] = tested on: OVCAR-4 ovarian
[27] = tested on: OVCAR-5 ovarian
[28] = tested on: OVCAR-8 ovarian
[29] = tested on: PC-3 prostate
[30] = tested on: RPMI-8226 leukemia
[31] = tested on: RXF 393 renal
[32] = tested on: SF-268 CNS
[33] = tested on: SF-295 CNS
[34] = tested on: SK-MEL-2 melanoma
[35] = tested on: SK-MEL-28 melanoma
[36] = tested on: SK-MEL-5 melanoma
[37] = tested on: SK-OV-3 ovarian
[38] = tested on: SNB-19 CNS
[39] = tested on: SNB-75 CNS
[40] = tested on: SW-620 colon
[41] = tested on: T-47D breast
[42] = tested on: TK-10 renal
[43] = tested on: U251 CNS
[44] = tested on: UACC-257 melanoma
[45] = tested on: UACC-62 melanoma
[46] = tested on: UO-31 renal

Measured: TGI

Cc1cc(C)c(C#N)c(SC(=S)NC(=O)c2ccc(Cl)cc2)n1
> 100 µM: [1] | [2] | [3] | [4] | [5] | [6] | [7] | [8] | [9] | [10] | [11] | [12] | [13] | [14] | [15] | [16] | [17] | [18] | [19] | [20] | [21] | [22] | [23] | [24] | [25] | [26] | [27] | [28] | [29] | [30] | [31] | [32] | [33] | [34] | [35] | [36] | [37] | [38] | [39] | [40] | [41] | [42] | [43] | [44] | [45] | [46]
